The IC50 is the midpoint of a concentration-inhibition curve. Read a high IC50 as a need for much substance.

These results are taken from BindingDB's records for doi:10.1021/jm030528p (Encysive Pharmaceuticals, 2004).

The experiment addresses Endothelin-1 receptor (Homo sapiens) (UniProt P25101). The experiment in a line: Displacement of [125I]ET-1 from Endothelin A receptor. Background: Displacement assays read how much labelled ligand stays bound in the presence of the test substance.

Chain of Endothelin-1 receptor (Homo sapiens) (P25101 whole entry, looked up): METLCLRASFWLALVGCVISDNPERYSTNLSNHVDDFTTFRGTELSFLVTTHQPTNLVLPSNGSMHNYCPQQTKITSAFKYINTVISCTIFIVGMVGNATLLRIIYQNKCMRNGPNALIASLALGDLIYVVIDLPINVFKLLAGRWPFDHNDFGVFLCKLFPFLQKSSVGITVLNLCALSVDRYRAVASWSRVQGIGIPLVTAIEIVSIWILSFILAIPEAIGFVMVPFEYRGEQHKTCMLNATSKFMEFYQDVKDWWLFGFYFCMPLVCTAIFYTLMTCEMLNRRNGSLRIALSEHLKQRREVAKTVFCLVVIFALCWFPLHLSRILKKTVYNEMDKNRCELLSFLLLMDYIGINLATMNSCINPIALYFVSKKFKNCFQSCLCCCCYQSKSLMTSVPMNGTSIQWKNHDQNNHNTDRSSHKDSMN

Regarding `Cc1cc(C)c(NC(=O)c2sccc2S(=O)(=O)Nc2onc(C)c2Cl)c(C(C)N=O)c1` (stereo unspecified) [3-(4-Chloro-3-methyl-isoxazol-5-ylsulfamoyl)-thiophene-2-carboxylic acid [2-(1-hydroxyimino-ethyl)-4,6-dimethyl-phenyl]-amide], the IC50 came to 0.02 nM.
